Test results as given in patent US20170362283A1, “NISIN-BASED COMPOUNDS AND USE THEREOF IN THE TREATMENT OF BACTERIAL INFECTIONS” (UNIVERSITEIT UTRECHT HOLDING B.V., priority 2015, published 2017).
Values after ≈ are worked out from the molar mass of the structure shown. Read-outs that look alike come from different tables or passages of the source.

Key:
[1] = test system: B. subtilis
Description: (§1) Determining the MIC value is a standard technique well known to the skilled person, in particular the MIC value can be measured using method M07-A9 (CLSI standard, January 2012, Vol. 32, No. 2, “Methods for Dilution Antimicrobial Susceptibility Tests for Bacteria That Grow Aerobically”).
(§2) Different microorganisms (from glycerol stock) were plated out on blood agar and incubated at 37° C. for 24 hours. A colony was selected and 2×5 mL of TSB was inoculated. The samples and a sterile control were cultured for 16-20 hours at 37° C. Comparative compound B is nisin acting as a control. […] Comparative compounds A, D and E are also control compounds not part of the present invention.
(§3) The overnight cultures were diluted to 0.5×10^6 CFU in TSB. 50 μL of the bacterial solution was added to each well and the plates were sealed with an adhesive membrane and incubated at 37° C. for 16 hours. The next day, the plates were visually inspected for bacterial growth.

[2] = test system: E. coli
Description: as §1, §2, §3

[3] = test system: S. aureus
Description: as §1, §2, §3

[4] = test system: M. luteus; type: cell-based
Description: as §1
(§4) Different microorganisms (from glycerol stock) were plated out on blood agar and incubated at 37° C. for 24 hours. A colony was selected and 2×5 mL of TSB was inoculated. The samples and a sterile control were cultured for 16-20 hours at 37° C. Comparative compound B is nisin acting as a control. Comparative compound C is vancomycin, also acting as a control. Comparative compounds A, D and E are also control compounds not part of the present invention.
as §3

[5] = test system: VRE 155; type: cell-based; details: duplicate experiments
Description: as §1, §4, §3

[6] = test system: MRSA USA300; type: cell-based, Staphylococcus aureus; details: duplicate experiments
Description: as §1, §4, §3

Structure (SMILES)	MIC values B. subtilis ([1]; duplicate experiments) [µg/mL]	MIC values E. coli ([2]; duplicate experiments) [µg/mL]	MIC values S. aureus ([3]; duplicate experiments) [µg/mL]	MIC values M. luteus ([4]; duplicate experiments) [µg/mL]	MIC values VRE 155 [5] [µg/mL]	MIC values MRSA USA300 [6] [µg/mL]	MIC values B. subtilis [1] [µg/mL]	MIC values E. coli [2] [µg/mL]	MIC values S. aureus [3] [µg/mL]	MIC values M. luteus [4] [µg/mL]
C=C1NC(=O)[C@H]([C@@H](C)CC)NC(=O)[C@H](NC(=O)C(=CC)NC(=O)[C@@H](N)[C@@H](C)CC)CSC[C@@H](C(=O)N[C@H]2C(=O)N3CCC[C@H]3C(=O)NCC(=O)N[C@H](C(=O)N[C@@H](CCCCN)C(=O)NCCCCCC)CS[C@H]2C)NC(=O)[C@H](CC(C)C)NC1=O [(2)]	32 (≈ 25.9 µM)	>64	>64	2 (≈ 1.62 µM)	–	–	–	–	–	–
C=C1NC(=O)[C@H]([C@@H](C)CC)NC(=O)[C@H](NC(=O)C(=CC)NC(=O)[C@@H](N)[C@@H](C)CC)CSC[C@@H](C(=O)N[C@H]2C(=O)N3CCC[C@H]3C(=O)NCC(=O)N[C@H](C(=O)N[C@@H](CCCCN)C(=O)NCCCCCCC)CS[C@H]2C)NC(=O)[C@H](CC(C)C)NC1=O [(3)]	16 (≈ 12.8 µM)	>64	64 (≈ 51.3 µM)	–	8 (≈ 6.41 µM)	64 (≈ 51.3 µM)	–	–	–	–
C=C1NC(=O)[C@H]([C@@H](C)CC)NC(=O)[C@H](NC(=O)C(=CC)NC(=O)[C@@H](N)[C@@H](C)CC)CSC[C@@H](C(=O)N[C@H]2C(=O)N3CCC[C@H]3C(=O)NCC(=O)N[C@H](C(=O)N[C@@H](CCCCN)C(=O)NCCCCCCCCC)CS[C@H]2C)NC(=O)[C@H](CC(C)C)NC1=O [(5)]	8 (≈ 6.27 µM)	64 (≈ 50.2 µM)	16 (≈ 12.5 µM)	–	8 to 16	32 (≈ 25.1 µM)	–	–	–	–
C=C1NC(=O)[C@H]([C@@H](C)CC)NC(=O)[C@H](NC(=O)C(=CC)NC(=O)[C@@H](N)[C@@H](C)CC)CSC[C@@H](C(=O)N[C@H]2C(=O)N3CCC[C@H]3C(=O)NCC(=O)N[C@H](C(=O)N[C@@H](CCCCN)C(=O)NCCCCCCCCCCC)CS[C@H]2C)NC(=O)[C@H](CC(C)C)NC1=O [(7)]	4 (≈ 3.07 µM)	>64	8 (≈ 6.14 µM)	–	4 (≈ 3.07 µM)	16 (≈ 12.3 µM)	–	–	–	–
C=C1NC(=O)[C@H]([C@@H](C)CC)NC(=O)[C@H](NC(=O)C(=CC)NC(=O)[C@@H](N)[C@@H](C)CC)CSC[C@@H](C(=O)N[C@H]2C(=O)N3CCC[C@H]3C(=O)NCC(=O)N[C@H](C(=O)N[C@@H](CCCCN)C(=O)NCCCCCCCCCCCC)CS[C@H]2C)NC(=O)[C@H](CC(C)C)NC1=O [(8)]	4 (≈ 3.04 µM)	>64	4 to 8	–	2 (≈ 1.52 µM)	4 (≈ 3.04 µM)	–	–	–	–
C=C1NC(=O)[C@H]([C@@H](C)CC)NC(=O)[C@H](NC(=O)C(=CC)NC(=O)[C@@H](N)[C@@H](C)CC)CSC[C@@H](C(=O)N[C@H]2C(=O)N3CCC[C@H]3C(=O)NCC(=O)N[C@H](C(=O)N[C@@H](CCCCN)C(=O)NCCCCCCCCCCCCC)CS[C@H]2C)NC(=O)[C@H](CC(C)C)NC1=O [(9)]	4 (≈ 3 µM)	>64	8 (≈ 6.01 µM)	–	2 (≈ 1.5 µM)	4 (≈ 3 µM)	–	–	–	–
C=C1NC(=O)[C@H]([C@@H](C)CC)NC(=O)[C@H](NC(=O)C(=CC)NC(=O)[C@@H](N)[C@@H](C)CC)CSC[C@@H](C(=O)N[C@H]2C(=O)N3CCC[C@H]3C(=O)NCC(=O)N[C@H](C(=O)N[C@@H](CCCCN)C(=O)NCCCCCCCCCCCCCCC)CS[C@H]2C)NC(=O)[C@H](CC(C)C)NC1=O [(11)]	8 (≈ 5.88 µM)	>64	32 (≈ 23.5 µM)	–	8 (≈ 5.88 µM)	64 (≈ 47.1 µM)	–	–	–	–
C=C1NC(=O)[C@H]([C@@H](C)CC)NC(=O)[C@H](NC(=O)C(=CC)NC(=O)[C@@H](N)[C@@H](C)CC)CSC[C@@H](C(=O)N[C@H]2C(=O)N3CCC[C@H]3C(=O)NCC(=O)N[C@H](C(=O)N[C@@H](CCCCN)C(=O)NCCC[N+](C)(C)CCCCCCCCCC)CS[C@H]2C)NC(=O)[C@H](CC(C)C)NC1=O [(14)]	4	>64	4	–	4	8	–	–	–	–
C=C1NC(=O)[C@H]([C@@H](C)CC)NC(=O)[C@H](NC(=O)C(=CC)NC(=O)[C@@H](N)[C@@H](C)CC)CSC[C@@H](C(=O)N[C@H]2C(=O)N3CCC[C@H]3C(=O)NCC(=O)N[C@H](C(=O)N[C@@H](CCCCN)C(=O)N[C@@H](Cc3c[nH]c4ccccc34)C(=O)NCCCCCCCCCC)CS[C@H]2C)NC(=O)[C@H](CC(C)C)NC1=O [(15)]	4 (≈ 2.71 µM)	>64	8 (≈ 5.42 µM)	–	2 (≈ 1.36 µM)	8 (≈ 5.42 µM)	–	–	–	–
C=C1NC(=O)[C@H]([C@@H](C)CC)NC(=O)[C@H](NC(=O)C(=CC)NC(=O)[C@@H](N)[C@@H](C)CC)CSC[C@@H](C(=O)N[C@H]2C(=O)N3CCC[C@H]3C(=O)NCC(=O)N[C@H](C(=O)N[C@@H](CCCCN)C(=O)N[C@@H](Cc3ccccc3)C(=O)NCCCCCCCCCC)CS[C@H]2C)NC(=O)[C@H](CC(C)C)NC1=O [(16)]	4 (≈ 2.78 µM)	>64	8 (≈ 5.57 µM)	–	2 (≈ 1.39 µM)	8 (≈ 5.57 µM)	–	–	–	–
C=C1NC(=O)[C@H]([C@@H](C)CC)NC(=O)[C@H](NC(=O)C(=CC)NC(=O)[C@@H](N)[C@@H](C)CC)CSC[C@@H](C(=O)N[C@H]2C(=O)N3CCC[C@H]3C(=O)NCC(=O)N[C@H](C(=O)N[C@@H](CCCCN)C(=O)N[C@@H](Cc3ccc(O)cc3)C(=O)NCCCCCCCCCC)CS[C@H]2C)NC(=O)[C@H](CC(C)C)NC1=O [(18)]	4 (≈ 2.75 µM)	>64	4 to 8	–	2 (≈ 1.38 µM)	8 (≈ 5.51 µM)	–	–	–	–
C=C1NC(=O)[C@H]([C@@H](C)CC)NC(=O)[C@H](NC(=O)C(=CC)NC(=O)[C@@H](N)[C@@H](C)CC)CSC[C@@H](C(=O)N[C@H]2C(=O)N3CCC[C@H]3C(=O)NCC(=O)N[C@H](C(=O)N[C@@H](CCCCN)C(=O)NCCCn3cc(CCC(=O)N(CCCCCCCCCC)CCCCCCCCCC)nn3)CS[C@H]2C)NC(=O)[C@H](CC(C)C)NC1=O [Compound (24) with R1-group (b)]	–	–	–	–	–	–	>64	>64	>64	8 (≈ 4.97 µM)
